# Test results as given in PubChem BioAssay (NCI).
#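 In this assay, cells in 96-well plates receive the compound at five concentrations for 48 hours. Endpoints are linearly interpolated between the surrounding concentrations. GI50 = concentration required for 50% inhibition of growth. TGI: concentration producing complete growth inhibition.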
# Experiments:
# Assay in all cases: NCI-60 cell line screen, 48 h
# BT-549 breast = test system: BT-549 breast
# MDA-MB-231 breast = test system: MDA-MB-231 breast
# MCF7 breast = test system: MCF7 breast
# CCRF-CEM leukemia = test system: CCRF-CEM leukemia
# TK-10 renal = test system: TK-10 renal
# CAKI-1 renal = test system: CAKI-1 renal
# OVCAR-8 ovarian = test system: OVCAR-8 ovarian
# SK-MEL-5 melanoma = test system: SK-MEL-5 melanoma
# SK-MEL-2 melanoma = test system: SK-MEL-2 melanoma
# SK-OV-3 ovarian = test system: SK-OV-3 ovarian
# HCC-2998 colon = test system: HCC-2998 colon
# OVCAR-3 ovarian = test system: OVCAR-3 ovarian
# SNB-19 CNS = test system: SNB-19 CNS
# RPMI-8226 leukemia = test system: RPMI-8226 leukemia
# 786-0 renal = test system: 786-0 renal
# PC-3 prostate = test system: PC-3 prostate
# MDA-MB-435 = test system: MDA-MB-435
# M14 melanoma = test system: M14 melanoma
# HL-60(TB) leukemia = test system: HL-60(TB) leukemia
# SR leukemia = test system: SR leukemia
# SW-620 colon = test system: SW-620 colon
# HCT-116 colon = test system: HCT-116 colon
# MALME-3M melanoma = test system: MALME-3M melanoma
# NCI-H23 lung = test system: NCI-H23 lung
# NCI-H460 lung = test system: NCI-H460 lung
# SF-268 CNS = test system: SF-268 CNS
# T-47D breast = test system: T-47D breast
# A498 renal = test system: A498 renal
# NCI-H522 lung = test system: NCI-H522 lung
# ACHN renal = test system: ACHN renal
# HS 578T breast = test system: HS 578T breast
# HCT-15 colon = test system: HCT-15 colon
# RXF 393 renal = test system: RXF 393 renal
# EKVX NSCLC = test system: EKVX NSCLC
# SN12C renal = test system: SN12C renal
# UACC-62 melanoma = test system: UACC-62 melanoma
# U251 CNS = test system: U251 CNS
# HT29 colon = test system: HT29 colon
# NCI-H226 lung = test system: NCI-H226 lung
# HOP-62 NSCLC = test system: HOP-62 NSCLC
# NCI/ADR-RES ovarian = test system: NCI/ADR-RES ovarian
# HOP-92 NSCLC = test system: HOP-92 NSCLC
# SK-MEL-28 melanoma = test system: SK-MEL-28 melanoma
# SF-295 CNS = test system: SF-295 CNS
# MDA-MB-468 breast = test system: MDA-MB-468 breast
# SNB-75 CNS = test system: SNB-75 CNS
# OVCAR-4 ovarian = test system: OVCAR-4 ovarian
# SF-539 CNS = test system: SF-539 CNS
# COLO 205 colon = test system: COLO 205 colon
# KM12 colon = test system: KM12 colon
# LOX IMVI melanoma = test system: LOX IMVI melanoma
# OVCAR-5 ovarian = test system: OVCAR-5 ovarian
# MOLT-4 leukemia = test system: MOLT-4 leukemia
# DU-145 prostate = test system: DU-145 prostate
# UACC-257 melanoma = test system: UACC-257 melanoma
# IGROV1 ovarian = test system: IGROV1 ovarian
# A549 NSCLC = test system: A549 NSCLC
# K-562 leukemia = test system: K-562 leukemia
# UO-31 renal = test system: UO-31 renal
compound,measurement,setting,value
O=C(COc1ccc(NC(=O)Nc2ccc(Cl)c(Cl)c2)cc1)N=Nc1c(O)[nH]c2ccc(Cl)cc12,GI50,BT-549 breast,1.62 µM
same,TGI,BT-549 breast,3.3 µM
same,GI50,MDA-MB-231 breast,1.93 µM
same,TGI,MDA-MB-231 breast,3.57 µM
same,GI50,MCF7 breast,2.08 µM
same,TGI,MCF7 breast,5 µM
same,GI50,CCRF-CEM leukemia,2.27 µM
same,TGI,CCRF-CEM leukemia,5.54 µM
same,GI50,TK-10 renal,2.86 µM
same,TGI,TK-10 renal,9.89 µM
same,GI50,CAKI-1 renal,2.21 µM
same,TGI,CAKI-1 renal,4.89 µM
same,GI50,OVCAR-8 ovarian,2.3 µM
same,TGI,OVCAR-8 ovarian,5.36 µM
same,GI50,SK-MEL-5 melanoma,1.72 µM
same,TGI,SK-MEL-5 melanoma,3.18 µM
same,GI50,SK-MEL-2 melanoma,2.07 µM
same,TGI,SK-MEL-2 melanoma,4.83 µM
same,GI50,SK-OV-3 ovarian,2.19 µM
same,TGI,SK-OV-3 ovarian,4.98 µM
same,GI50,HCC-2998 colon,2.58 µM
same,TGI,HCC-2998 colon,7.1 µM
same,GI50,OVCAR-3 ovarian,1.97 µM
same,TGI,OVCAR-3 ovarian,4.1 µM
same,GI50,SNB-19 CNS,2.66 µM
same,TGI,SNB-19 CNS,7.49 µM
same,GI50,RPMI-8226 leukemia,2.44 µM
same,TGI,RPMI-8226 leukemia,6.2 µM
same,GI50,786-0 renal,1.78 µM
same,TGI,786-0 renal,3.8 µM
same,GI50,PC-3 prostate,2.1 µM
same,TGI,PC-3 prostate,5.07 µM
same,GI50,MDA-MB-435,1.8 µM
same,TGI,MDA-MB-435,3.68 µM
same,GI50,M14 melanoma,1.81 µM
same,TGI,M14 melanoma,3.71 µM
same,GI50,HL-60(TB) leukemia,2.05 µM
same,TGI,HL-60(TB) leukemia,5.31 µM
same,GI50,SR leukemia,2.18 µM
same,TGI,SR leukemia,9.97 µM
same,GI50,SW-620 colon,1.79 µM
same,TGI,SW-620 colon,3.59 µM
same,GI50,HCT-116 colon,1.85 µM
same,TGI,HCT-116 colon,3.47 µM
same,GI50,MALME-3M melanoma,1.68 µM
same,TGI,MALME-3M melanoma,3.1 µM
same,GI50,NCI-H23 lung,2.08 µM
same,TGI,NCI-H23 lung,4.4 µM
same,GI50,NCI-H460 lung,1.92 µM
same,TGI,NCI-H460 lung,4.07 µM
same,GI50,SF-268 CNS,2.23 µM
same,TGI,SF-268 CNS,5.18 µM
same,GI50,T-47D breast,2.01 µM
same,TGI,T-47D breast,4.76 µM
same,GI50,A498 renal,2.06 µM
same,TGI,A498 renal,5.28 µM
same,GI50,NCI-H522 lung,1.74 µM
same,TGI,NCI-H522 lung,3.57 µM
same,GI50,ACHN renal,3.23 µM
same,TGI,ACHN renal,11.4 µM
same,GI50,HS 578T breast,2.33 µM
same,TGI,HS 578T breast,6.36 µM
same,GI50,HCT-15 colon,7.94 µM
same,TGI,HCT-15 colon,> 100 µM
same,GI50,RXF 393 renal,1.62 µM
same,TGI,RXF 393 renal,3.13 µM
same,GI50,EKVX NSCLC,2.65 µM
same,TGI,EKVX NSCLC,9.28 µM
same,GI50,SN12C renal,1.93 µM
same,TGI,SN12C renal,3.67 µM
same,GI50,UACC-62 melanoma,1.98 µM
same,TGI,UACC-62 melanoma,4.45 µM
same,GI50,U251 CNS,1.9 µM
same,TGI,U251 CNS,3.79 µM
same,GI50,HT29 colon,1.89 µM
same,TGI,HT29 colon,3.58 µM
same,GI50,NCI-H226 lung,2.06 µM
same,TGI,NCI-H226 lung,4.59 µM
same,GI50,HOP-62 NSCLC,1.78 µM
same,TGI,HOP-62 NSCLC,3.65 µM
same,GI50,NCI/ADR-RES ovarian,> 100 µM
same,TGI,NCI/ADR-RES ovarian,> 100 µM
same,GI50,HOP-92 NSCLC,2.18 µM
same,TGI,HOP-92 NSCLC,4.87 µM
same,GI50,SK-MEL-28 melanoma,1.89 µM
same,TGI,SK-MEL-28 melanoma,3.86 µM
same,GI50,SF-295 CNS,1.81 µM
same,TGI,SF-295 CNS,3.54 µM
same,GI50,MDA-MB-468 breast,1.84 µM
same,TGI,MDA-MB-468 breast,3.54 µM
same,GI50,SNB-75 CNS,1.58 µM
same,TGI,SNB-75 CNS,3.49 µM
same,GI50,OVCAR-4 ovarian,2.26 µM
same,TGI,OVCAR-4 ovarian,6.15 µM
same,GI50,SF-539 CNS,1.78 µM
same,TGI,SF-539 CNS,3.4 µM
same,GI50,COLO 205 colon,1.76 µM
same,TGI,COLO 205 colon,3.35 µM
same,GI50,KM12 colon,1.98 µM
same,TGI,KM12 colon,4.38 µM
same,GI50,LOX IMVI melanoma,1.73 µM
same,TGI,LOX IMVI melanoma,3.23 µM
same,GI50,OVCAR-5 ovarian,2.11 µM
same,TGI,OVCAR-5 ovarian,5.39 µM
same,GI50,MOLT-4 leukemia,1.84 µM
same,TGI,MOLT-4 leukemia,4.5 µM
same,GI50,DU-145 prostate,2.96 µM
same,TGI,DU-145 prostate,8.81 µM
same,GI50,UACC-257 melanoma,2 µM
same,TGI,UACC-257 melanoma,4.15 µM
same,GI50,IGROV1 ovarian,2.31 µM
same,TGI,IGROV1 ovarian,5.73 µM
same,GI50,A549 NSCLC,2.61 µM
same,TGI,A549 NSCLC,7.01 µM
same,GI50,K-562 leukemia,2.77 µM
same,TGI,K-562 leukemia,7.1 µM
same,GI50,UO-31 renal,22.5 µM
same,TGI,UO-31 renal,> 100 µM
